# According to patent US9408891B2, “Methods of using gelsolin to treat or prevent bacterial sepsis” (priority 2003, dated 2016):
# “Also recorded” adds a separate entry of the source.
# Assays:
# human platelets = experiment: Collagen-induced aggregation of gel-filtered platelets; format: cell-based; settings: collagen 10 μg/ml
# Description: To isolate human platelets, blood from healthy volunteers was collected in acid-citrate dextrose. Platelet-rich plasma obtained after centrifugation (15 minutes, 110×g) at room temperature, was supplemented with apyrase (0.5 U/ml) (Sigma-Aldrich) to degrade excess nucleotides. Platelets were sedimented by centrifugation (10 minutes, 1000×g), suspended in buffer A (139 mM NaCl, 2.8 mM KCl, 0.8 mM MgCl2, 0.8 mM KH2PO4, 8.9 mM NaHCO3, 10 mM HEPES, 5.6 mM glucose, 0.3% albumin, pH 7.35) and filtered on a 50 ml column of Sepharose 2B to obtain gel-filtered platelets (GFP).
# Platelet aggregation was initiated by adding collagen (10 μg/ml) (Chrono-Log Corp., Havertown, Pa.). Platelet aggregation was monitored using a Chronolog Lumi-Aggregometer (Chrono-Log Corp.). Changes in light transmission were recorded for 10 minutes, using a PowerLab/200 instrument and MacLab Chart program Version 3.2. When required before activation, the platelet suspension was reacted with LPS, or LPS-preincubated with the SEQ ID No:1 peptide (QRLFQVKGRR).
# [1] = biological target: T1, gelsolin activity in whole human serum (Homo sapiens, UniProt P06396); experiment: Actin filament severing activity of whole human serum; format: biochemical; settings: larger amounts needed than with pure gelsolin
# T1 construct: from tissue; host or cells: whole human serum (2.5 µl)
# Description: As shown, recombinant human gelsolin (rhGLS) (FIG. 4A) and blood serum (FIG. 4B) severing activity was measured in 0.4 μM pyrene-labeled F-actin samples (polymerized with 50% pyrene-labeled G-actin), after adding gelsolin (16 nM)/serum (2.5 μl), or their combination with one of the following: LPS (from different species), PIP2 (phosphatidyl-inositol-4,5-bisphosphate), LPA (lysophosphatidic acid), lipid A (the LPS derivative lacking polysaccharide) or PS (phosphatidylserine). The fluorescence intensity of F-pyrene actin was then monitored for 10 minutes, and the severing activity was calculated based on decreasing fluorescence. Severing activity was determined from a decrease in rate of fluorescence during depolymerization, and the depolymerization rate was calculated from the slope of the early decrease in fluorescence.
# [2] = system: NF-κB translocation in rat primary astrocytes; experiment: NF-κB translocation to the nucleus in astrocytes; format: cell-based; settings: astrocytes, 2 hour; LPS 2 μM or TNF-α 10 ng/ml
# Description: Rat primary astrocytes were obtained from prenatal rats and maintained for 14 days in culture before use. Embryos (E17-E19) were removed by caesarian section from a Sprague-Dawley rat and the hippocampi were surgically removed. The tissue was digested in trypsin/DNAse at 37° C., centrifuged (1000×5 min) and filtered to derive suspensions from each pup. Cells were grown in an incubator at 37° C. and 5% CO2 in DMEM (Dulbecco's Modified Eagle's Medium; BioWhittaker/Cambrex BioScience, East Rutherford, N.J.), supplemented with Ham's F12 (Sigma-Aldrich, St. Louis, Mo.) and 5% fetal bovine serum (FBS) (Hyclone, Logan, Utah) for 7 days, followed by an additional 7 days in Neurobasal medium (Gibco, Grand Island, N.Y.) also supplemented with 5% FBS, 2 mM l-glutamine, 50 μg/ml streptomycin and 50 U/ml penicillin. In each experiment, the medium was changed to serum-free at 6-12 hours prior to addition of LPS, TNF-α, or gelsolin.
# HAECs and astrocytes cultures were incubated for 10 minutes in medium containing 10 μg/ml LPS alone, or LPS that had been pre-incubated with 0.16 mg/ml of human gelsolin. Cultures were fixed with ice-cold methanol and immunostained for F-actin with fluorescein isothiocyanate (FITC)-labeled phalloidin (Molecular Probes, Eugene, Oreg.). In astrocyte cultures, NF-κB translocation was manipulated by a 2 hour incubation in serum-free medium containing one of the following: 10 ng/ml TNF-α, 10 μg/ml LPS alone, or LPS that had been preincubated with 0.16 mg/ml human gelsolin. Location of transcription factor nuclear factor-kappaB (NF-κB) was observed using a monoclonal antibody to NF-κB (Molecular Probes), and cell nuclei were detected by counter-staining with 4′, 6-diamidino-2-phenylindole dihydrochloride (DAPI) (Sigma).
# [3] = biological target: T2, Gc-globulin (vitamin D-binding protein) (Homo sapiens, UniProt P02774); experiment: Actin-sequestering activity of Gc-globulin; format: biochemical; settings: LPS at least up to 100 μM
# T2 sequence (P02774 17-474): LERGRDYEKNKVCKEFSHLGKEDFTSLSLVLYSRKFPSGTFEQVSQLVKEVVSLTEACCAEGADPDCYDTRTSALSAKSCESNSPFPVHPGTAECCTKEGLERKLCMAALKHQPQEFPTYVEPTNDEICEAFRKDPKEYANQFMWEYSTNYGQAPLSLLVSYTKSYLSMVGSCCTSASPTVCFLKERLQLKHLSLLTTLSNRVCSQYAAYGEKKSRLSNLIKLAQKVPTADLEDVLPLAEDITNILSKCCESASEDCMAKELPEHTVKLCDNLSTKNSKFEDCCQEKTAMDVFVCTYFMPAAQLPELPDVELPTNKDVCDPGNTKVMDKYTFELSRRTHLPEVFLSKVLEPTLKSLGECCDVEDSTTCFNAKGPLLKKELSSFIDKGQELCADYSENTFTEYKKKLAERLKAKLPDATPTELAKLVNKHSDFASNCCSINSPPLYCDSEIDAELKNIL
# rat primary astrocytes = experiment: LPS-induced actin cytoskeleton disassembly, phalloidin staining, astrocytes; format: cell-based; settings: LPS 10 μg/ml, 10 min
# Source text: In light of the findings in the previous Examples, and using the materials prepared in above, the effect of the gelsolin binding by LPS was studied to determine the effect on cellular responses in vitro. Cell cultures of human aortic endothelial cells (HAEC) and rat primary astrocytes were used to evaluate the effect of LPS on actin. Both of these cell types have mCD14 (membrane bound C14) and TLR LPS receptors (Faure, et al., J. Biol. Chem. 275:11058-11063 (2000); Bsibsi, et al., J. Neuropathol. Exp. Neurol. 61:1013-1021 (2002); Bowman, et al., Glia 43:281-291 (2003)).
# Rat primary astrocytes were obtained from prenatal rats and maintained for 14 days in culture before use. Embryos (E17-E19) were removed by caesarian section from a Sprague-Dawley rat and the hippocampi were surgically removed. The tissue was digested in trypsin/DNAse at 37° C., centrifuged (1000×5 min) and filtered to derive suspensions from each pup. […]
# HAECs and astrocytes cultures were incubated for 10 minutes in medium containing 10 μg/ml LPS alone, or LPS that had been pre-incubated with 0.16 mg/ml of human gelsolin. […] Location of transcription factor nuclear factor-kappaB (NF-κB) was observed using a monoclonal antibody to NF-κB (Molecular Probes), and cell nuclei were detected by counter-staining with 4′, 6-diamidino-2-phenylindole dihydrochloride (DAPI) (Sigma).
# T1 sequence (P06396 28-782): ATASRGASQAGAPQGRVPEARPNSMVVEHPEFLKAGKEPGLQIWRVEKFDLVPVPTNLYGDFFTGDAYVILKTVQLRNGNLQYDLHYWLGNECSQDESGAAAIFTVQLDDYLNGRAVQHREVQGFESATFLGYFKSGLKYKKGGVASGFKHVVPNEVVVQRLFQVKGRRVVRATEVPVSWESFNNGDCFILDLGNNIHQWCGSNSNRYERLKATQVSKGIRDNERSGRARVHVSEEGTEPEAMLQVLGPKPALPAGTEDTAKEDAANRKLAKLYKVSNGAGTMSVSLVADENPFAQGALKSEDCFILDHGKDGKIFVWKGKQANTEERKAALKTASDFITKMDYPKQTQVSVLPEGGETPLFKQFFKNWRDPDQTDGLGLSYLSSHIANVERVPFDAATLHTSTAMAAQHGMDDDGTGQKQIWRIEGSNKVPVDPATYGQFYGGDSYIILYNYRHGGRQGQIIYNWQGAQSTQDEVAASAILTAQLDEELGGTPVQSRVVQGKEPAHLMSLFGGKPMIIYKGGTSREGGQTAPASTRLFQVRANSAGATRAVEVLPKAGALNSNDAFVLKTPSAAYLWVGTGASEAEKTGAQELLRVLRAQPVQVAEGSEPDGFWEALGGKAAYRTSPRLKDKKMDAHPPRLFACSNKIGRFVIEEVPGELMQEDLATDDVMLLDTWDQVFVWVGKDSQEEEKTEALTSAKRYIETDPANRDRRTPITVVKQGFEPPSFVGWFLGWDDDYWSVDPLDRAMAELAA
substance,measurement,setting,value
lipopolysaccharide [LPS],effect of LPS alone on collagen-induced platelet aggregation and secretion,human platelets,strongly inhibited
same,inhibition of gelsolin activity in whole human serum,[1],able to inhibit gelsolin activity; also recorded: inhibitory efficiency varies with the bacterial species
same,induction of NF-κB translocation to the nucleus,[2],caused NF-κB translocation to the nucleoplasm; also recorded: resulted in its translocation to the nucleoplasm
same,effect on actin-sequestering activity of Gc-globulin,[3],unaffected
same,effect of LPS alone on actin cytoskeleton,rat primary astrocytes,rapidly induced the disassembly of the actin cytoskeleton; also recorded: disassembly of the actin cytoskeleton was readily induced; also recorded: rapidly induced disassembly of the actin cytoskeleton
